pIC50: −log10 of the molar value. Structures can show the parent of a compound that is named as a salt. Where two headings read alike, the source gives them in different places.
Experiments:
[1] = system: degranulation in RBL cells; experiment: Inhibition of degranulation in RBL cells; type: cell-based; settings: Rattus norvegicus, anti-DNP IgE, read-out: IC50 (concentration which inhibits 50% of degranulation in RBL cells)
Experimental: The day before the assay was performed, RBL cells, that had been grown to confluence in a 96 well plate, were incubated at 37° C. for at least 2 hours. The medium was replaced in each well with 100 μL of fresh medium containing […] of anti-DNP IgE.
On the following day, the cells were washed once with PRS (2.6 mM glucose and 0.1% BSA) and 160 μL of PRS was added to each well. A test compound was added to a well in a 20 μL solution at 10× of the desired concentration and incubated for 20 to 40 minutes at 37° C. 20 μL of 10× mouse anti-IgE ([…]) was added. Maximum degranulation occurred between 15 to 40 minutes after addition of anti-IgE.

IL-2 production = experiment: Inhibition of IL-2 production in PHA-activated Jurkat cells (ELISA); type: cell-based, human; settings: Homo sapiens, read-out: IC50 (inhibition of IL-2 production)
Experimental: Jurkat cells were placed in a 96 well plate (0.5 million cells per well in 1% FBS medium) then a test compound of this invention was added at different concentrations. After 10 minutes, the cells were activated with PHA (final concentration 2.5 μg/mL) and incubated for 20 hours at 37° C. under CO2. The final volume was 200 μL. Following incubation, the cells were centrifuged and the supernatants collected and stored at −70° C. prior to assaying for IL-2 production. A commercial ELISA kit (IL-2 Eli-pair, Diaclone Research, Besancon, France) was used to detect production of IL-2, from which dose response curves were obtained. The IC50 value was calculated as the concentration at which 50% of maximum IL-2 production after stimulation was inhibited versus a non-stimulation control.

[2] = Jurkat, 20 h, Jurkat cells, PHA 2.5 μg/mL, 20 hours, IL-2 ELISA

Compound | pIC50 (IL-2 production; [2]) | also measured
COCCOC(=O)c1ccc(Cl)c(-c2ccc(NC(=O)c3c(F)cccc3F)cc2)c1 [Compound 2, 6-Chloro-4′-(2,6-difluoro-benzoylamino)-biphenyl-3-(carboxylic acid 2-methoxyethyl ester)] | 8.05 | pIC50 [1]: 5.31
COc1ncc(Cl)cc1-c1ccc(NC(=O)c2c(F)cccc2F)cc1 [Compound 5, N-[4-(5-Chloro-2-methoxy-pyridin-3-yl)-phenyl]-2,6-difluoro-benzamide] | 9.00 | pIC50 [1]: 5.96
Cc1ccc(-c2nnn[nH]2)cc1-c1ccc(NC(=O)c2c(F)cccc2F)cc1 [Compound 6, 2,6-Difluoro-N-[2′-methyl-5′-(1H-tetrazol-5-yl)-biphenyl-4-yl]-benzamide] | 8.05 | pIC50 [1]: 5.30
COc1ncc(Cl)cc1-c1ccc(NC(=O)c2c(F)cccc2F)cc1 [Compound 8, N-[4-(5-Chloro-2-methoxy-pyridin-3-yl)-phenyl]-2,6-difluoro-benzamide, hydrochloride] |  | pIC50 ([1]; RBL): 6.28; pIC50 (IL-2 production; Jurkat cells, PHA 2.5 μg/mL, 20 hours, IL-2 ELISA): 7.89
Cc1ccc(-c2nccs2)cc1-c1ccc(NC(=O)c2ccncc2F)cc1 [Compound 54, 3-Fluoro-N-[5′-(thiazol-2-yl)-2′-methyl-biphenyl-4-yl]-isonicotinamide] | 7.92 | 
Cc1cnccc1C(=O)Nc1ccc(-c2cc(-c3nncs3)ccc2C)cc1 [Compound 60, 3-Methyl-N-[5′-([1,3,4]thiadiazol-2-yl)-2′-methyl-biphenyl-4-yl]-isonicotinamide] | 7.89 | 
Cc1ccc(-c2nnc(N)s2)cc1-c1ccc(NC(=O)c2c(F)cccc2F)cc1 [Compound 62, 2,6-Difluoro-N-[2′-methyl-5′-(5-amino-[1,3,4]thiadiazol-2-yl)-biphenyl-4-yl]-benzamide] | 7.72 | 
Cc1ccc(-c2nnc(N(C)C)s2)cc1-c1ccc(N(C)C(=O)c2c(F)cccc2F)cc1 [Compound 63, 2,6-Difluoro-N-{2′-methyl-5′-[5-(N,N-dimethylamino)-[1,3,4]thiadiazol-2-yl]-biphenyl-4-yl}-N-methyl-benzamide] | < 6.00 | 
Cc1ccc(-c2nnc(N(C)C)s2)cc1-c1ccc(NC(=O)c2c(F)cccc2F)cc1 [Compound 64, 2,6-Difluoro-N-{2′-methyl-5′-[5-(N,N-dimethylamino)-[1,3,4]thiadiazol-2-yl]-biphenyl-4-yl}-benzamide] | 7.28 | 
Cc1ccc(-c2nnn[nH]2)cc1-c1ccc(NC(=O)c2c(F)cccc2F)cc1 [Compound 65, 2,6-Difluoro-N-[2′-methyl-5′-(1H-tetrazol-5-yl)-biphenyl-4-yl]-benzamide, sodium salt] |  | pIC50 (IL-2 production; Jurkat, 20 h): < 6.00
Cc1ccc(-c2ncnn2C)cc1-c1ccc(NC(=O)c2c(F)cccc2F)cc1 [Compound 66, 2,6-Difluoro-N-[2′-methyl-5′-(2-methyl-2H-[1,2,4]triazol-3-yl)-biphenyl-4-yl]-benzamide] | 8.10 | 
Cc1ccc(-c2ncnn2C)cc1-c1ccc(NC(=O)c2ccncc2F)cc1 [Compound 67, 3-Fluoro-N-[2′-methyl-5′-(2-methyl-2H-[1,2,4]triazol-3-yl)-biphenyl-4-yl]-isonicotinamide] | 7.57 | 
Cc1cnccc1C(=O)Nc1ccc(-c2cc(-c3nnco3)ccc2C)cc1 [Compound 70, 3-Methyl-N-[2′-methyl-5′-([1,3,4]oxadiazol-2-yl)-biphenyl-4-yl]-isonicotinamide] | 7.89 | 
CSc1nnc(-c2ccc(C)c(-c3ccc(NC(=O)c4c(F)cccc4F)cc3)c2)n1C [Compound 72, 2,6-Difluoro-N-[2′-methyl-5′-(4-methyl-5-methylsulfanyl-4H-[1,2,4]triazol-3-yl)-biphenyl-4-yl]-benzamide] | < 6.00 | 
CSc1nnc(-c2ccc(C)c(-c3ccc(NC(=O)c4ccncc4F)cc3)c2)n1C [Compound 73, 3-Fluoro-N-[2′-methyl-5′-(4-methyl-5-methylsulfanyl-4H-[1,2,4]triazol-3-yl)-biphenyl-4-yl]-isonicotinamide] | < 6.00 | 
CSc1nnc(-c2ccc(C)c(-c3ccc(NC(=O)c4ccncc4C)cc3)c2)n1C [Compound 74, 3-Methyl-N-[2′-methyl-5′-(4-methyl-5-methylsulfanyl-4H-[1,2,4]triazol-3-yl)-biphenyl-4-yl]-isonicotinamide] | < 6.00 | 
CSc1nnc(-c2ccc(C)c(-c3ccc(NC(=O)c4c(F)cncc4F)cc3)c2)n1C [Compound 75, 3,5-Difluoro-N-[2′-methyl-5′-(4-methyl-5-methylsulfanyl-4H-[1,2,4]triazol-3-yl)-biphenyl-4-yl]-isonicotinamide] | < 6.00 | 
Cc1ccc(-c2cocn2)cc1-c1ccc(NC(=O)c2c(F)cccc2F)cc1 [Compound 77, 2,6-Difluoro-N-[2′-methyl-5′-(oxazol-4-yl)-biphenyl-4-yl]-benzamide] | 8.00 | 
Cc1ccc(-c2cocn2)cc1-c1ccc(NC(=O)c2ccncc2F)cc1 [Compound 78, 3-Fluoro-N-[2′-methyl-5′-(oxazol-4-yl)-biphenyl-4-yl]-isonicotinamide] | 8.05 | 
COc1ccc(CCCOC(Cn2ccnc2)c2ccc(OC)cc2)cc1 (stereo not shown) [SKF96365, reference compound] |  | pIC50 ([1]; RBL): < 4.70

Continued, in another order:

pIC50 (IL-2 production; [2]) | Compound | also measured
8.80 | Cc1ccc(-c2ncco2)cc1-c1ccc(NC(=O)c2c(F)cccc2F)cc1 [Compound 3, 2,6-Difluoro-N-(2′-methyl-5′-oxazol-2-yl-biphenyl-4-yl)-bezamide] | pIC50 [1]: 5.35
8.70 | COC(=O)c1ccc(C)c(-c2ccc(NC(=O)c3c(F)cncc3F)cc2)c1 [Compound 4, 4′-[(3,5-Difluoro-pyridine-4-cabonyl)-amino]-6-methyl-biphenyl-3-carboxylic acid methyl ester] | pIC50 [1]: 5.84
8.15 | Cc1cnccc1C(=O)Nc1ccc(-c2cc(-c3nccs3)ccc2C)cc1 [Compound 9, 3-Methyl-N-(2′-methyl-5′-thiazol-2-yl-biphenyl-4-yl)-isonicotinamide, HCl salt] | pIC50 [1]: 5.85
8.30 | COC(=O)c1ccc(C)c(-c2ccc(NC(=O)c3ccncc3F)cc2)c1 [Compound 12, 4′-[(3-Fluoro-pyridine-4-carbonyl)-amino]-6-methyl-biphenyl-3-carboxylic acid methyl ester] | pIC50 [1]: 6.32
8.22 | Cc1ccc(-c2nncs2)cc1-c1ccc(NC(=O)c2c(F)cncc2F)cc1 [Compound 53, 3,5-Difluoro-N-[5′-([1,3,4]thiadiazol-2-yl)-2′-methyl-biphenyl-4-yl]-isonicotinamide] | 
8.22 | Cc1cnccc1C(=O)Nc1ccc(-c2cc(-c3nccs3)ccc2Cl)cc1 [Compound 55, 3-Methyl-N-[5′-(thiazol-2-yl)-2′-chloro-biphenyl-4-yl]-isonicotinamide] | 
8.70 | O=C(Nc1ccc(-c2cc(-c3nccs3)ccc2Cl)cc1)c1c(F)cccc1F [Compound 56, 2,6-Difluoro-N-[2′-chloro-5′-(thiazol-2-yl)-biphenyl-4-yl]-benzamide] | 
8.52 | O=C(Nc1ccc(-c2cc(-c3nccs3)ccc2Cl)cc1)c1c(F)cncc1F [Compound 57, 3,5-Difluoro-N-[5′-(thiazol-2-yl)-2′-chloro-biphenyl-4-yl]-isonicotinamide] | 
8.70 | O=C(Nc1ccc(-c2cc(-c3nccs3)ccc2Cl)cc1)c1ccncc1F [Compound 58, 3-Fluoro-N-[5′-(thiazol-2-yl)-2′-chloro-biphenyl-4-yl]-isonicotinamide] | 
8.52 | Cc1ccc(-c2nncs2)cc1-c1ccc(NC(=O)c2c(F)cccc2F)cc1 [Compound 59, 2,6-Difluoro-N-[2′-methyl-5′-([1,3,4]thiadiazol-2-yl)-biphenyl-4-yl]-benzamide] | 
8.22 | Cc1ccc(-c2nncs2)cc1-c1ccc(NC(=O)c2ccncc2F)cc1 [Compound 61, 3-Fluoro-N-[5′-([1,3,4]thiadiazol-2-yl)-2′-methyl-biphenyl-4-yl]-isonicotinamide] | 
8.52 | Cc1ccc(-c2nnco2)cc1-c1ccc(NC(=O)c2c(F)cncc2F)cc1 [Compound 68, 3,5-Difluoro-N-[2′-methyl-5′-([1,3,4]oxadiazol-2-yl)-biphenyl-4-yl]-isonicotinamide] | 
8.30 | Cc1ccc(-c2nnco2)cc1-c1ccc(NC(=O)c2c(F)cccc2F)cc1 [Compound 69, 2,6-Difluoro-N-[2′-methyl-5′-([1,3,4]oxadiazol-2-yl)-biphenyl-4-yl]-benzamide] | 
8.22 | Cc1ccc(-c2nnco2)cc1-c1ccc(NC(=O)c2ccncc2F)cc1 [Compound 71, 3-Fluoro-N-[2′-methyl-5′-([1,3,4]oxadiazol-2-yl)-biphenyl-4-yl]-isonicotinamide] | 
8.15 | Cc1ccc(-c2nccs2)cc1-c1ccc(NC(=O)c2snnc2C)cc1 [Compound 76, 4-Methyl-[1,2,3]thiadazole-5-carboxylic acid [2′-methyl-5′-(thiazol-2-yl)-biphenyl-4-yl]-amide] | 
